Experimental data from patent US20170129916A1, “NOVEL BETULINIC PROLINE IMIDAZOLE DERIVATIVES AS HIV INHIBITORS” (HETERO RESEARCH FOUNDATION, priority 2014, published 2017).

Columns and labels:
[1] = test system: HIV-1 strains, for e.g., 92HT599; test: Antiviral activity: p24 estimation in MT-2 cells infected with HIV-1; format: cell-based; settings: Human immunodeficiency virus 1, MT2, MT-2 cells infected with HIV-1, p24, ~96 hours; for IC50: read-out: Antiviral activity IC50 (nM) Efficacy IC50
Experimental: MT-2 cells were infected with required number of TCID50's of HIV-1 strains, for e.g., 92HT599. The infected cells were plated at the concentration of 30, 000 cells per well in a 96 well plate. Test compound was added to the 96 well plate with the final concentration of DMSO (vehicle—not more than 1%). The plates are then incubated in a CO2 incubator for ˜96 hours (˜4 days) for viral infection. At the end of incubation period an aliquot from each well was taken for p24 estimation. The quantitation of p24 is an estimated index for antiviral activity of the compound. Percent inhibition was calculated with reference to control values (vehicle controls).
p-24 estimation was carried out using Advance biosciences kit as per the procedure detailed by supplier.

[2] = Single dose oral pharmacokinetic study; format: in vivo; settings: mouse, mice, 30 mg/kg, plasma; for AUC(0-t): read-out: Mice oral PK @30 mg/kg AUC 0-t; for Cmax: read-out: Mice oral PK @30 mg/kg Cmax
Experimental: The test item was administered through oral route to animals (rat/mice) at 30 mg/kg dose in a suitable vehicle at 10 ml/kg dose volume. Blood samples (˜50 uL at each time point) were collected from retro-orbital plexus using K3 EDTA as anticoagulant in eppend; orf tubes at defined time intervals under light ether anesthesia. The samples were centrifuged at 3500×g to separate plasma and stored at −80° C. until analysis.
Sample analysis: Test samples were analyzed using LC-MS-MS after developing fit-for-purpose method for each of test compound.

| Compound | inhibition at 0.1 µM [1] [%] | inhibition at 1 µM [1] [%] | IC50 [1] [nM] | AUC(0-t) [2] [µg·h/mL] | Cmax [2] [ng/mL] |
| --- | --- | --- | --- | --- | --- |
| C=C(C)[C@@H]1CC[C@]2(C(=O)N3C[C@H](O)C[C@H]3c3nc(-c4ccccc4)c[nH]3)CC[C@]3(C)[C@H](CC[C@@H]4[C@@]5(C)CC[C@H](OC(=O)[C@H]6C[C@@H](C(=O)O)C6(C)C)C(C)(C)[C@@H]5CC[C@]43C)[C@@H]12 [Compound 29, (1R,3S)-3-((((1R,3aS,5aR,5bR,7aR,9S,11aR,11bR,13aR,13bR)-3a-((2S,4R)-4-hydroxy-2-(4-phenyl-1H-imidazol-2-yl)pyrrolidine-1-carbonyl)-5a,5b,8,8,11a-pentamethyl-1-(prop-1-en-2-yl)icosahydro-1H-cyclopenta[a]chrysen-9-yl)oxy)carbonyl)-2,2-dimethyl cyclobutane-1-carboxylic acid] | 99 | 99 | 12.3 | 57.5 | 4500 |
| CC(C)(CC(=O)O)CC(=O)O[C@H]1CC[C@]2(C)[C@H]3CC[C@@H]4[C@H]5[C@H](C6(C)CC6)CC[C@]5(C(=O)N5CCC[C@H]5c5ncc(-c6ccc(F)cc6)[nH]5)CC[C@@]4(C)[C@]3(C)CC[C@H]2C1(C)C [Compound 70, 5-(((1R,3aS,5aR,5bR,7aR,9S,11aR,11bR,13aR,13bR)-3a-((S)-2-(5-(4-fluorophenyl)-1H-imidazol-2-yl)pyrrolidine-1-carbonyl)-5a,5b,8,8,11a-pentamethyl-1-(1-methylcyclopropyl)icosahydro-1H-cyclopenta[a]chrysen-9-yl)oxy)-3,3-dimethyl-5-oxopentanoic acid] | 84 | 99 |  | 172 | 10000 |
| CC1([C@@H]2CC[C@]3(C(=O)N4CCC[C@H]4c4ncc(-c5ccccn5)[nH]4)CC[C@]4(C)[C@H](CC[C@@H]5[C@@]6(C)CC[C@H](OC(=O)[C@H]7C[C@@H](C(=O)O)C7(C)C)C(C)(C)[C@@H]6CC[C@]54C)[C@@H]23)CC1 [Compound 51, (1R,3S)-2,2-dimethyl-3-((((1R,3aS,5aR,5bR,7aR,9S,11aR,11bR,13aR,13bR)-5a,5b,8,8,11a-pentamethyl-1-(1-methylcyclopropyl)-3a-((S)-2-(5-(pyridin-2-yl)-1H-imidazol-2-yl)pyrrolidine-1-carbonyl)icosahydro-1H-cyclopenta[a]chrysen-9-yl)oxy)carbonyl)cyclobutane-1-carboxylic acid] |  |  | 43.3 | 160 | 4930 |
| C=C(C)[C@@H]1CC[C@]2(C(=O)N3C[C@H](OCCOC)C[C@H]3c3nc(-c4ccccc4)c[nH]3)CC[C@]3(C)[C@H](CC[C@@H]4[C@@]5(C)CC[C@H](OC(=O)[C@H]6C[C@@H](C(=O)O)C6(C)C)C(C)(C)[C@@H]5CC[C@]43C)[C@@H]12 [Compound 7, (1R,3S)-3-((((1R,3aS,5aR,5bR,7aR,9S,11aR,11b,13aR,13bR)-3a-((2S,4R)-4-(2-methoxyethoxy)-2-(4-phenyl-1H-imidazol-2-yl)pyrrolidine-1-carbonyl)-5a,5b,8,8,11a-pentamethyl-1-(prop-1-en-2-yl)icosahydro-1H-cyclopenta[a]chrysen-9-yl)oxy)carbonyl)-2,2-dimethylcyclobutane-1-carboxylic acid] |  |  | 5.5 | 342 | 12800 |
| C=C(C)[C@@H]1CC[C@]2(C(=O)N3CCC[C@H]3c3nc(-c4cccc(Cl)c4)c[nH]3)CC[C@]3(C)[C@H](CC[C@@H]4[C@@]5(C)CC[C@H](OC(=O)[C@H]6C[C@@H](C(=O)O)C6(C)C)C(C)(C)[C@@H]5CC[C@]43C)[C@@H]12 [Compound 28, (1R,3S)-3-((((1R,3aS,5aR,5bR,7aR,9S,11aR,11bR,13aR,13bR)-3a-((S)-2-(4-(3-chlorophenyl)-1H-imidazol-2-yl)pyrrolidine-1-carbonyl)-5a,5b,8,8,11a-pentamethyl-1-(prop-1-en-2-yl)icosahydro-1H-cyclopenta[a]chrysen-9-yl)oxy)carbonyl)-2,2-dimethylcyclobutane-1-carboxylic acid] | 54 | 99 | 19.4 | 248 | 10000 |
| C=C(C)[C@@H]1CC[C@]2(C(=O)N3CCC[C@H]3c3ncc(-c4ccccn4)[nH]3)CC[C@]3(C)[C@H](CC[C@@H]4[C@@]5(C)CC[C@H](OC(=O)[C@H]6C[C@@H](C(=O)O)C6(C)C)C(C)(C)[C@@H]5CC[C@]43C)[C@@H]12 [Compound 1, (1R,3S)-2,2-dimethyl-3-((((1R,3aS,5aR,5bR,7aR,9S,11aR,11bR,13aR,13bR)-5a,5b,8,8,11a-pentamethyl-1-(prop-1-en-2-yl)-3a-((S)-2-(5-(pyridin-2-yl)-1H-imidazol-2-yl)pyrrolidine-1-carbonyl)icosahydro-1H-cyclopenta[a]chrysen-9-yl)oxy)carbonyl)cyclobutane-1-carboxylic acid] |  |  | 8.06 | 177 | 6290 |
| C=C(C)[C@@H]1CC[C@]2(C(=O)N3CCC[C@H]3c3ncc(C(C)(C)C)o3)CC[C@]3(C)[C@H](CC[C@@H]4[C@@]5(C)CC[C@H](OC(=O)[C@H]6C[C@@H](C(=O)O)C6(C)C)C(C)(C)[C@@H]5CC[C@]43C)[C@@H]12 [Compound 16, (1R,3S)-3-((((1R,3aS,5aR,5bR,7aR,9S,11aR,11bR,13aR,13bR)-3a-((S)-2-(5-(tert-butyl)oxazol-2-yl)pyrrolidine-1-carbonyl)-5a,5b,8,8,11a-pentamethyl-1-(prop-1-en-2-yl)icosahydro-1H-cyclopenta[a]chrysen-9-yl)oxy)carbonyl)-2,2-dimethylcyclobutane-1-carboxylic acid] |  |  | 103 | 229 | 7890 |
| C=C(C)[C@@H]1CC[C@]2(C(=O)N3CCC[C@H]3c3ncc(-c4ccc(OC)cc4)[nH]3)CC[C@]3(C)[C@H](CC[C@@H]4[C@@]5(C)CC[C@H](OC(=O)CC(C)(C)C(=O)O)C(C)(C)[C@@H]5CC[C@]43C)[C@@H]12 [Compound 46, 4-(((1R,3aS,5aR,5bR,7aR,9S,11aR,11bR,13aR,13bR)-3a-((S)-2-(5-(4-methoxyphenyl)-1H-imidazol-2-yl)pyrrolidine-1-carbonyl)-5a,5b,8,8,11a-pentamethyl-1-(prop-1-en-2-yl)icosahydro-1H-cyclopenta[a]chrysen-9-yl)oxy)-2,2-dimethyl-4-oxobutanoic acid] |  |  | 11 | 153 | 8710 |
| C=C(C)[C@@H]1CC[C@]2(C(=O)N3C[C@H](OC)C[C@H]3c3nc(-c4ccccc4)c[nH]3)CC[C@]3(C)[C@H](CC[C@@H]4[C@@]5(C)CC[C@H](OC(=O)[C@H]6C[C@@H](C(=O)O)C6(C)C)C(C)(C)[C@@H]5CC[C@]43C)[C@@H]12 [Compound 32, (1R,3S)-3-((((1R,3aS,5aR,5bR,7aR,9S,11aR,11bR,13aR,13bR)-3a-((2S,4R)-4-methoxy-2-(4-phenyl-1H-imidazol-2-yl)pyrrolidine-1-carbonyl)-5a,5b,8,8,11a-pentamethyl-1-(prop-1-en-2-yl)icosahydro-1H-cyclopenta[a]chrysen-9-yl)oxy)carbonyl)-2,2-dimethylcyclobutane-1-carboxylic acid] | 60 | 99 | 23.3 | 316 | 13900 |
| CC(C)(CC(=O)O[C@H]1CC[C@]2(C)[C@H]3CC[C@@H]4[C@H]5[C@H](C6(C)CC6)CC[C@]5(C(=O)N5CCC[C@H]5c5ncc(-c6cccc(F)c6)[nH]5)CC[C@@]4(C)[C@]3(C)CC[C@H]2C1(C)C)C(=O)O [Compound 65, 4-(((1R,3aS,5aR,5bR,7aR,9S,11aR,11bR,13aR,13bR)-3a-((S)-2-(5-(3-fluorophenyl)-1H-imidazol-2-yl)pyrrolidine-1-carbonyl)-5a,5b,8,8,11a-pentamethyl-1-(1-methylcyclopropyl)icosahydro-1H-cyclopenta[a]chrysen-9-yl)oxy)-2,2-dimethyl-4-oxobutanoic acid] |  |  | 15.7 | 203 | 13300 |
| C=C(C)[C@@H]1CC[C@]2(C(=O)N3CCC[C@H]3c3nc(-c4ccccc4)co3)CC[C@]3(C)[C@H](CC[C@@H]4[C@@]5(C)CC[C@H](OC(=O)[C@H]6C[C@@H](C(=O)O)C6(C)C)C(C)(C)[C@@H]5CC[C@]43C)[C@@H]12 [Compound 17, (1R,3S)-2,2-dimethyl-3-((((1R,3aS,5aR,5bR,7aR,9S,11aR,11bR,13aR,13bR)-5a,5b,8,8,11a-pentamethyl-3a-((S)-2-(4-phenyloxazol-2-yl)pyrrolidine-1-carbonyl)-1-(prop-1-en-2-yl)icosahydro-1H-cyclopenta[a]chrysen-9-yl)oxy)carbonyl)cyclobutane-1-carboxylic acid] |  |  | 58.6 | 219 | 7090 |
